Assay results reported in patent publication US5892064A, “Chemiluminescent dialkyl-substituted 1,2-dioxetanes, methods of synthesis and use” (Lumigen, Inc., priority 1997, dated 1999).

How the values were obtained:
[1] = Thermal stability of dioxetanes: first order decay of chemiluminescence of dilute solutions in xylene at several temperatures; type: physicochemical; settings: for Ea: activation energy for thermal decomposition; for Ea / log A: dilute solutions in xylene; for t1/2: thermal decomposition (Table 4; temperature not given); for t1/2 25° C. / log A: thermal decomposition
Method: (§1) Chemiluminescence intensities and rate measurements were performed using either a Turner Designs (Sunnyvale, Calif.) model TD-20e luminometer or a luminometer built in house (Black Box) which uses a photon counting photomultiplier. Temperature control of samples analyzed in the luminometers was achieved by means of a circulating bath connected to the instrument. Quantitative measurement of light intensities on the Turner luminometer was extended beyond the 10^4 linear range of the detector by a neutral density filter. Data collection was controlled by an Apple MacIntosh SE/30 computer using the LUMISOFT data reduction program (Lumigen, Inc., Southfield, Mich.).
Activation energies for thermal decomposition of dioxetanes 2c, h and i were determined by measuring the first order rate constant k for decay of chemiluminescence of dilute solutions in xylene at several temperatures.

[2] = Fluoride-triggered (TBAF) chemiluminescent decomposition of dioxetanes in DMSO; type: physicochemical; settings: for rates of fluoride-triggered decomposition compared / t1/2 trig.: 10 μL of 10^-6 M dioxetane with 50 μL of 1M TBAF in DMSO; for Rate acceleration: fluoride-triggered versus thermal decomposition; for t1/2: [F-] 1M, DMSO
Method: as §1
Stock solutions of dioxetanes 2c, 2e, 2g and for comparison, 4-(3-t-butyldimethylsilyloxyphenyl)-4-methoxyspiro [1,2-dioxetane-3,2'-tricyclo[3.3.1.1^3,7 ]decane] (2j), (preparation described in U.S. Pat. No. 4,962,192) were made to a concentration of 10^-6 M in DMSO. Serial dilutions in DMSO were made as required. Ten μL aliquots were triggered in 7×50 mm polypropylene tubes in a Turner Designs TD-20e luminometer by injection of 50 μL of a solution of tetra-n-butylammonium fluoride (TBAF) in DMSO (1M-10^-4 M) in the appropriate solvent, typically DMSO. Light intensity was attenuated when needed by a neutral density filter. All experiments were conducted at ambient temperature. Peak light intensity and decay rate diminished as the fluoride concentration was decreased. At the lowest concentration of fluoride, decay kinetics were not cleanly first order.
The half lives for decay were essentially independent of dioxetane concentration.
The rates of fluoride-triggered decomposition of dioxetanes 2c, h, i and j were compared in DMSO under identical conditions, i.e. 10 μL aliquot of a 10^-6 M solution of dioxetane with 50 μL of 1M TBAF in DMSO. […]

[3] = literature, cited from earlier work
[4] = Thermal and hydrolytic stability of dioxetane in aqueous buffer solution; type: physicochemical; settings: 0.33 mM, 1 mg/mL Enhancer A, 0.2M buffer pH 9.6, 37° C. versus room temperature, 5 days
Method: The thermal and hydrolytic stability of a 0.33 mM solution of dioxetane 2f containing 1 mg/mL of Enhancer A in 0.2M 2-amino-2-methyl-1-propanol buffer, pH 9.6 and 0.88 mM Mg^+2 was determined at 37° C. Solutions of the dioxetane were maintained at room temperature and 37° C. for 5 days. To each of 12 wells in a 96-well microplate was added 100 μL of each solution. The plate was incubated at 37° C. and chemiluminescence emission initiated by addition of 10 μL of solutions containing 1.1×10^-15 mol of AP. Light intensities were integrated for 2.5 hours. Stability of the dioxetane was assessed by comparing the average light yield of the sample incubated at 37° C. to the solution held at room temperature. A decrease in the amount of light emitted indicates decomposition of the dioxetane during the incubation period.

Ea [1] [kcal/mol] | t1/2 25° C. [1] [yr] | log A [1] | SMILES | t1/2 [1] [yr] | rates of fluoride-triggered decomposition compared [2] | t1/2 trig. [2] [s] | Rate acceleration [2] | t1/2 ([2]; [Dioxetane 2h] 10^-6 M) [s] | t1/2 ([2]; [Dioxetane 2h] 10^-7 M) [s] | t1/2 ([2]; [Dioxetane 2h] 10^-8 M) [s] | t1/2 ([2]; [Dioxetane 2h] 10^-9 M) [s] | half life (t1/2) at 25° C. ([3]; 25° C.) | activation energy for decomposition [3] [kcal/mol] | thermal and hydrolytic stability in aqueous solution [4]
28.1 | 1.2 | 12.85 | COC1(c2cccc(OC(C)=O)c2)OOC1(C(C)C)C(C)C (centres unmarked) [Dioxetane 2c] | 1.2 | essentially the same rate | 7 | 5.5 × 10^6 | – | – | – | – | – | – | –
– | – | – | C1C2CC3CC1CC(C2)C31OOC12C1CC3CC(C1)CC2C3 (centres unmarked) | – | – | – | – | – | – | – | – | several years | 37 | –
28.5 | 1.1 | 13.2 | COC1(c2cccc(O)c2)OOC1(C1CCCCC1)C1CCCCC1 (centres unmarked) [Dioxetane 2i] | 1.1 | essentially the same rate | 6 | 5.7 × 10^6 | – | – | – | – | – | – | –
– | – | – | COC1(c2cccc(O[Si](C)(C)C(C)(C)C)c2)OOC12C1CC3CC(C1)CC2C3 (centres unmarked) [Dioxetane 2j] | 3.8 | essentially the same rate | 7 | 1.4 × 10^7 | – | – | – | – | – | – | –
– | – | – | COC1(c2cccc(OP(=O)(O)O)c2)OOC1(C(C)C)C(C)C (centres unmarked) [Dioxetane 2f] | – | – | – | – | – | – | – | – | – | – | stable under these conditions

SMILES | Ea [1] [kcal/mol] | t1/2 25° C. [1] [yr] | log A [1] | t1/2 [1] [yr] | rates of fluoride-triggered decomposition compared [2] | t1/2 trig. [2] [s] | Rate acceleration [2] | t1/2 ([2]; [Dioxetane 2h] 10^-6 M) [s] | t1/2 ([2]; [Dioxetane 2h] 10^-7 M) [s] | t1/2 ([2]; [Dioxetane 2h] 10^-8 M) [s] | t1/2 ([2]; [Dioxetane 2h] 10^-9 M) [s] | half life (t1/2) at 25° C. ([3]; 25° C.) | activation energy for decomposition [3] [kcal/mol] | thermal and hydrolytic stability in aqueous solution [4]
COC1(c2cccc(O[Si](C)(C)C(C)(C)C)c2)OOC1(C1CCCCC1)C1CCCCC1 (centres unmarked) [Dioxetane 2h] | 29.4 | 1.7 | 13.7 | 1.7 | essentially the same rate | 7 | 7.0 × 10^6 | 7.2 | 6.2 | 6.2 | 6.7 | – | – | –
